Test results taken from US20240391923A1, “METHIONINE ADENOSYLTRANSFERASE 2A INHIBITOR FOR TREATING MTAP DELETION-TYPE CANCER” (SUZHOU GENHOUSE BIO CO., LTD., priority 2022, published 2024).
pIC50: −log10 of the molar value. Where two headings read alike, the source gives them in different places.

Tests used:
[1] = system: SDMA in human colon cancer cell line HCT116; test: Cell symmetric dimethylarginine (SDMA) test, In-cell Western, HCT116 (MTAP wild-type); assay type: cell-based
Method in brief: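 SDMA level, an indirect readout of cellular MAT2A inhibition, measured by In-cell Western as background-subtracted 800/700 nm signal against DRAQ5. Cells exposed 4 days to six 1:4-diluted doses from 6 μM; inhibition relative to DMSO, IC50 from sigmoidal fit.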

[2] = system: SDMA in HCT116-MTAP-knockout cell line; test: Cell symmetric dimethylarginine (SDMA) test, In-cell Western, HCT116-MTAP-knockout; assay type: cell-based; details: Homo sapiens, 96 h
[3] = system: Hut-78 cell strain; test: Tumor cell proliferation inhibition assay (CellTiter-Glo), Hut-78; assay type: cell-based; details: Hut-78 cells, 5-day treatment; for IC50: IC50 score, read-out: Tumor cell 5-day relative growth inhibition (Hut-78) (nM), score; for pIC50: IC50 value, read-out: Tumor cell 5-day relative growth inhibition (Hut-78)
Method in brief: (§1)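 Growth inhibition read as ATP content (CellTiter-Glo) after 5-day compound exposure at 37 °C, 5% CO2. Dosing began 24 h post-seeding, ten 3-fold dilutions starting at 10 μM, alongside a DMSO-treated group.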

[4] = system: DOHH-2 cell strain; test: Tumor cell proliferation inhibition assay (CellTiter-Glo), DOHH-2; assay type: cell-based; details: Homo sapiens, 120 h, DOHH-2 cells, 5-day treatment; for IC50: IC50 score, read-out: Tumor cell 5-day relative growth inhibition (DOHH-2) (nM), score; for pIC50: IC50 value, read-out: Tumor cell 5-day relative growth inhibition (DOHH-2)
Description: After the HCT116-MTAP-knockout (−/−) cell strain, the HCT116-MTAP wild-type(+/+)-cell strain, the DOHH-2 cell strain, or the Hut-78 cell strain was treated with the test compound for 5 days, the ATP level was measured using a CellTiter-Glo kit of Promega to evaluate the inhibition of the test compound against the growth of the tumor cell strain.
In the present application, the HCT116-MTAP-knockout (−/−) cell strain, the HCT116-MTAP wild-type (+/+)-cell strain, the DOHH-2 cell strain, or the Hut-78 cell strain was seeded into a 96-well cell culture plate at an appropriate cell density. After 24 h, the cells were treated using the test compounds diluted 1:3 fold at the highest concentration of 10 μM for 10 gradients, and a DMSO treatment group was set up separately. The cells were cultured in a 37° C./5% CO2 incubator for 5 days.

[5] = biological target: MAT2A recombinant protein (Homo sapiens, UniProt P31153); test: MAT2A inhibitory activity (malachite green colorimetric enzyme assay); assay type: biochemical
Method in brief: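 Compounds tested over 10 points, 3-fold dilutions, top final concentration 1000 nM. Enzyme reaction: MAT2A, L-methionine, ATP, room temperature, 60 min, in HEPES pH 7.5 buffer with KCl, MgCl2 and DTT; inorganic phosphate read colorimetrically (malachite green, A630). Inhibition vs log concentration fitted for IC50.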

[6] = Pharmacokinetic test in rats (IV and PO); assay type: in vivo; details: rat, plasma, SD rats; for half-life: read-out: T½ (converted)
[7] = system: HCT116-MTAP wild-type (+/+)-cell strain; test: Tumor cell proliferation inhibition assay (CellTiter-Glo), HCT116-MTAP wild-type (+/+); assay type: cell-based; details: Homo sapiens, 120 h, 5-day treatment; for IC50: read-out: Tumor cell 5-day relative growth inhibition (HCT116-MTAP+/+) (nM), score; for pIC50: read-out: Tumor cell 5-day relative growth inhibition (HCT116-MTAP+/+)
Method in brief: as §1

[8] = system: HCT116-MTAP-knockout (−/−) cell strain; test: Tumor cell proliferation inhibition assay (CellTiter-Glo), HCT116-MTAP-knockout (-/-); assay type: cell-based; details: Homo sapiens, 120 h, 5-day treatment; for IC50: read-out: Tumor cell 5-day relative growth inhibition (HCT116-MTAP−/−) (nM), score; for pIC50: read-out: Tumor cell 5-day relative growth inhibition (HCT116-MTAP−/−)
Method in brief: as §1

[9] = Homo sapiens, HCT-116, 96 h, IC50 score class, read-out: Cell 96 h SDMA Inhibition (HCT116-MTAP+/+) (score)
[10] = Homo sapiens, HCT-116, 96 h, read-out: Cell 96 h SDMA inhibition (HCT116-MTAP+/+)
[11] = IC50 score class, read-out: Cell 96 h SDMA Inhibition (HCT116-MTAP−/−) (score)
[12] = read-out: Cell 96 h SDMA Inhibition (HCT116-MTAP−/−)
[13] = IC50 score class, read-out: MAT2A Inhibition (score)
[14] = HCT116-MTAP wild-type (+/+) cells, IC50 score
[15] = HCT116-MTAP wild-type (+/+) cells, IC50 value
[16] = HCT116-MTAP-knockout (−/−) cells, IC50 score
[17] = HCT116-MTAP-knockout (−/−) cells, IC50 value

Sequence of MAT2A recombinant protein (P31153 whole entry): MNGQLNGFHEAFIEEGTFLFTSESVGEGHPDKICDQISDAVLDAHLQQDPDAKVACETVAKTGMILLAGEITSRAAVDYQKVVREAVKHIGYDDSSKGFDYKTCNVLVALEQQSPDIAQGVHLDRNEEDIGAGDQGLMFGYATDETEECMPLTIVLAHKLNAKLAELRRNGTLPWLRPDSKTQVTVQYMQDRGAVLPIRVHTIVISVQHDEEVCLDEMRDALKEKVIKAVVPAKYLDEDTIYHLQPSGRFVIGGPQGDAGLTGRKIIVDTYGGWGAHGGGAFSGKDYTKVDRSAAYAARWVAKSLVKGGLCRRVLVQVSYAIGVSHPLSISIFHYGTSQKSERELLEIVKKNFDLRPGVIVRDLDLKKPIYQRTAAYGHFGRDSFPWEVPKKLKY

SMILES	pIC50 [1, 9]	pIC50 [1, 10]	pIC50 [2, 11]	pIC50 [2, 12]	IC50 ([3]; Homo sapiens, HuT78, 120 h) [nM]	pIC50 ([3]; Homo sapiens, HuT78, 120 h)	IC50 [4] [nM]	pIC50 [4]	pIC50 [5, 13]	pIC50 ([5]; read-out: MAT2A Inhibition)	also measured
O=c1c2nn(Cc3cccnc3)cc2c2ccc(Cl)cc2n1-c1cccnc1 [Compound B47]	< 5.52	4.33	> 6.70	6.81	< 500	6.70	500 to 2000	5.78	> 7.00	7.53	–
CCn1cc2c(n1)c(=O)n(-c1cccc(F)c1)c1cc(Cl)ccc21 [Compound B4]	< 5.52	5.03	6.00 to 6.70	6.11	–	–	≥ 2000	–	> 7.00	7.41	AUC ([6]; IV 1 mg/kg): 2.5 µM·h; clearance ([6]; IV 1 mg/kg): 21.7 mL/min/kg; bioavailability ([6]; IV 1 mg/kg, PO 5 mg/kg): 68%; half-life ([6]; IV 1 mg/kg): 0.62 h; AUC ([6]; PO 5 mg/kg): 7.95 µM·h; half-life ([6]; PO 5 mg/kg): 2.1 h
COc1ccc(Cn2cc3c(n2)c(=O)n(-c2cccnc2)c2cc(Cl)ccc32)cc1 [Compound B28]	6.00 to 6.70	6.47	> 6.70	7.52	–	–	< 500	6.35	–	–	AUC ([6]; IV 1 mg/kg): 7.6 µM·h; clearance ([6]; IV 1 mg/kg): 16 mL/min/kg; bioavailability ([6]; IV 1 mg/kg, PO 5 mg/kg): 60%; half-life ([6]; IV 1 mg/kg): 1.7 h; AUC ([6]; PO 5 mg/kg): 7.6 µM·h; half-life ([6]; PO 5 mg/kg): 3.3 h; IC50 [7, 14]: < 500 nM; pIC50 [7, 15]: 6.55; IC50 [8, 16]: < 500 nM; pIC50 [8, 17]: 7.12
CCn1cc2c(n1)c(=O)n(-c1cccnc1)c1cc(Cl)ccc21 [Compound B3]	< 5.52	5.37	> 6.70	–	–	–	500 to 2000	6.03	–	–	AUC ([6]; IV 1 mg/kg): 7.81 µM·h; bioavailability ([6]; IV 1 mg/kg, PO 5 mg/kg): 67%; half-life ([6]; IV 1 mg/kg): 0.08 h; AUC ([6]; PO 5 mg/kg): 26 µM·h; half-life ([6]; PO 5 mg/kg): 0.97 h; IC50 [8, 16]: < 500 nM; pIC50 [8, 17]: 6.64
CCn1cc2c(n1)c(=O)n(-c1cccnc1C)c1cc(Cl)ccc21 [Compound B30]	6.00 to 6.70	6.64	> 6.70	8.12	< 500	7.48	< 500	6.40	> 7.00	7.49	–
Cn1ccc(Cn2cc3c(n2)c(=O)n(-c2cccnc2)c2cc(Cl)ccc32)n1 [Compound B48]	< 5.52	5.29	> 6.70	7.20	< 500	7.09	500 to 2000	6.06	> 7.00	7.53	IC50 [7, 14]: 500 to 2000 nM; pIC50 [7, 15]: 5.76; IC50 [8, 16]: < 500 nM; pIC50 [8, 17]: 6.92
O=c1c2nn(CC(F)F)cc2c2ccc(Cl)cc2n1-c1cccnc1 [Compound B40]	< 5.52	5.35	6.00 to 6.70	6.43	500 to 2000	5.89	≥ 2000	5.62	–	–	–
CC(C)n1cc2c(n1)c(=O)n(-c1cccnc1)c1cc(Cl)ccc21 [Compound B39]	5.52 to 6.00	5.81	6.00 to 6.70	6.23	< 500	7.01	≥ 2000	5.42	–	–	–

Second part, led by results:

pIC50 [1, 9]	pIC50 [1, 10]	pIC50 [2, 11]	pIC50 [2, 12]	IC50 ([3]; Homo sapiens, HuT78, 120 h) [nM]	pIC50 ([3]; Homo sapiens, HuT78, 120 h)	IC50 [4] [nM]	pIC50 [4]	pIC50 [5, 13]	pIC50 ([5]; read-out: MAT2A Inhibition)	SMILES	also measured
< 5.52	< 5.52	6.00 to 6.70	6.24	≥ 2000	5.67	≥ 2000	5.69	> 7.00	7.27	Cn1cc2c(n1)c(=O)n(-c1ccc3cn[nH]c3c1)c1cc(Cl)ccc21 [Compound B57]	–
6.00 to 6.70	6.06	> 6.70	7.27	< 500	6.86	500 to 2000	6.18	> 7.00	7.56	Cn1cc2c(n1)c(=O)n(-c1cccc(O)c1)c1cc(C(F)(F)F)ccc21 [Compound B150]	–
< 5.52	< 5.00	> 6.70	8.37	–	–	–	–	> 7.00	8.22	O=c1c2n[nH]cc2c2cc(F)c(Cl)cc2n1-c1cccnc1C1CC1 [Compound B425]	AUC ([6]; IV 1 mg/kg): 21 µM·h; clearance ([6]; IV 1 mg/kg): 2 mL/min/kg; bioavailability ([6]; IV 1 mg/kg, PO 5 mg/kg): 116%; half-life ([6]; IV 1 mg/kg): 14 h; AUC ([6]; PO 5 mg/kg): 128 µM·h; half-life ([6]; PO 5 mg/kg): 11.6 h; IC50 ([7]; HCT116-MTAP+/+ cells, IC50 class score): ≥ 2000 nM; pIC50 ([7]; HCT116-MTAP+/+ cells): < 5.00; IC50 ([8]; HCT116-MTAP−/− cells, IC50 class score): < 500 nM; pIC50 ([8]; HCT116-MTAP−/− cells): 6.59
–	–	–	–	–	–	< 500	7.20	> 7.00	7.47	Cc1ncccc1-n1c(=O)c2nn(C)cc2c2ccc(Cl)cc21 [Compound B65]	pIC50 ([1]; 96 h, IC50 score class, read-out: Cell 96 h SDMA Inhibition (HCT116-MTAP+/+) (score)): > 6.70; pIC50 ([1]; 96 h, read-out: Cell 96 h SDMA inhibition (HCT116-MTAP+/+)): 6.72; IC50 [3]: < 500 nM; pIC50 [3]: 7.62
6.00 to 6.70	6.67	> 6.70	8.00	–	–	< 500	7.09	–	–	Cc1ncccc1-n1c(=O)c2nn(C)cc2c2ccc(C(F)(F)F)nc21 [Compound B76]	IC50 [3]: < 500 nM; pIC50 [3]: 7.98
6.00 to 6.70	6.40	> 6.70	7.48	< 500	7.06	< 500	6.41	> 7.00	7.37	Cc1ncccc1-n1c(=O)c2nn(C)cc2c2ccc(OC(F)(F)F)cc21 [Compound B77]	–
